Laboratory results as given in PMC11926880, “Procognitive Potential of Neuroprotective Triazine 5-HT6 Receptor Antagonists Tested on Chronic Activity In Vivo in Rats: Computer-Aided Insight into the Role of Chalcogen-Differences on the Pharmacological Profile” (ACS Chemical Neuroscience, 2025).
Where two headings read alike, the source gives them in different places.

Experiments:
[1] = tissue distribution pharmacokinetics after single i.p. administration; assay type: in vivo, rat; settings: male, Wistar, rat, ip; for Cmax: read-out: Cmax; for Tmax: read-out: Tmax (converted)
Protocol: Standard laboratory food (LSM-B) and filtered water as well as environment enrichment were freely available. Animals were randomly divided into treatment groups using a computer-based random order generator. All of the experiments were performed by two observers unaware of the treatment applied between 9:00 and 14:00 on separate groups of animals. Rats were injected with the investigated compounds once (in pharmacokinetic studies) and for 21 days (in behavioral studies), and afterward, behavioral tests were conducted and tissue collection was done, as required. For pharmacokinetic studies, animals were fasted prior to dosing by withholding food but not water overnight. After dosing, the food was withheld for an additional 8 h. All animals were used only once. Animals were handled every day and weighed every other day in the chronic part of the experiment. Procedures involving animals and their care were conducted in accordance with current European Community and Polish legislations on animal experimentation. Additionally, all efforts were made to minimize animals' suffering and to use only the number of animals necessary to produce reliable scientific data. The experimental protocols and procedures described were approved by the I Local Ethics Commission in Cracow (nos 309/2019 and 765/2023) and complied with the European Communities Council Directive of 24 November 24, 1986 (86/609/EEC) and were in accordance with the 1996 NIH Guide for the Care and Use of Laboratory Animals. The research program complies with the commonly accepted '3Rs' (replacement and reduction of animals, refinement of experimental conditions, and procedures to minimize the harm to animals). […] Moreover, five tissues (i.e., brain, heart, lungs, kidneys, and liver) were harvested and rinsed with cold saline. Blood was allowed to clot at room temperature for 15-20 min and then centrifuged (3000 rpm for 10 min). The obtained serum and tissues were stored at -80 °C until analysis. […] HPLC analysis with UV detection at 221 nm was performed at a 1 mL/min flow rate, and the column temperature was 38 °C. Before analysis, tissue samples were thawed, weighed (200-250 mg), and placed in 5 mL plastic tubes with four volumes (w/v) of PBS (pH 7.4) and homogenized individually using a […]-1 homogenizer (ART Prozess & Labortechnik GmbH & Co., Germany). […] The samples were alkalized with 50 μL of 4 M sodium hydroxide solution, vortex-mixed, and extracted with 1 mL of ethyl acetate/hexane (30/70, v/v) mixture on a shaker (VXR Vibrax, IKA, Germany) for 20 min. […] Then, the samples were shaken and centrifuged again. Finally, 60-90 μL of each acidic layer was injected into the HPLC system. […] The interday and intraday precision and accuracy of quality control samples evaluated in the serum and tissue homogenates were within 15%. […] The area under the serum concentration-time curve from time zero to time t (AUC0-t), where t is the time of the last measurable sample, was calculated according to the linear trapezoidal rule. The AUC from time zero to infinity (AUC0-∞) was estimated as AUC0-t + Ct/λz, where Ct was the serum concentration of the last measurable sample. The clearance (CL/F) was calculated as D/AUC0-∞, and the volume of distribution based on the terminal phase (Vz/F) was estimated as D/(λz·AUC0-∞), where F is the bioavailability of intraperitoneal administration. The MRT is calculated to be […], where AMUC0-∞ is the area under the first moment curve from the time of dosing to infinity. The peak serum concentration (Cmax) and the time to reach Cmax (Tmax) were read directly from the observations. […] Data were presented as mean ± SD.

HepG2 = test system: HepG2; set-up: method as in PMID 38190615, PMID 35228010; settings: tested at 0.1–100 μM; cited from earlier work
5-HT2AR = settings: read-out: radioligand binding assay Ki; cloned receptors; cited from earlier work
[2] = kidneys, 0.3 mg/kg, kidneys, 0.3 mg/kg i.p.
[3] = kidneys, 1 mg/kg, kidneys, 1.0 mg/kg i.p.
[4] = liver, 0.3 mg/kg, liver, 0.3 mg/kg i.p.
[5] = liver, 1 mg/kg, liver, 1.0 mg/kg i.p.
[6] = lungs, 0.3 mg/kg, lungs, 0.3 mg/kg i.p.
[7] = lungs, 1 mg/kg, lungs, 1.0 mg/kg i.p.

Structure (SMILES): CN1CCN(c2nc(N)nc(C(C)(C)Sc3ccc4ccccc4c3)n2)CC1 [WA-22, 4-(4-methylpiperazin-1-yl)-6-(2-(naphthalen-2-ylthio)propan-2-yl)-1,3,5-triazin-2-amine]
- Kp ([1]; heart/serum, 1 mg/kg, heart, 1.0 mg/kg i.p., read-out: AUC ratio (tissue-to-serum AUC0–t)): 2.63 ± 1.69
- Kp ([1]; heart/serum, 1 mg/kg, heart-to-serum, 1 mg/kg i.p., read-out: AUC0–∞ (ng·h/g)/AUC0–∞ (ng·h/mL)): 2.09 ± 2.71
- Kp ([1]; heart/serum, 1 mg/kg, heart-to-serum, 1 mg/kg i.p., read-out: Cmax (ng/g)/Cmax (ng/mL)): 2.61 ± 1.09
- MRT ([1]; brain, 0.3 mg/kg i.p.): 64.4 min
- MRT ([1]; brain, 1.0 mg/kg i.p.): 90.6 min
- MRT ([1]; heart, 0.3 mg/kg i.p.): 104 min
- MRT ([1]; heart, 1.0 mg/kg i.p.): 109 min
- MRT ([1]; kidneys, 0.3 mg/kg i.p.): 85.3 min
- MRT ([1]; kidneys, 1.0 mg/kg i.p.): 107 min
- MRT ([1]; liver, 0.3 mg/kg i.p.): 40.6 min
- MRT ([1]; liver, 1.0 mg/kg i.p.): 51.3 min
- MRT ([1]; lungs, 0.3 mg/kg i.p.): 130 min
- MRT ([1]; lungs, 1.0 mg/kg i.p.): 72.6 min
- Cmax [1, 2]: 72.3 ± 27.1 ng/g
- Tmax [1, 2]: 5 min
- Cmax [1, 3]: 247 ± 119 ng/g
- Tmax [1, 3]: 5 min
- Kp ([1]; kidneys/serum, 0.3 mg/kg, kidneys, 0.3 mg/kg i.p., read-out: AUC ratio (tissue-to-serum AUC0–t)): 3.93 ± 1.88
- Kp ([1]; kidneys/serum, 1 mg/kg, kidneys, 1.0 mg/kg i.p., read-out: AUC ratio (tissue-to-serum AUC0–t)): 5.47 ± 3.33
- Kp ([1]; kidneys/serum, 1 mg/kg, kidneys-to-serum, 1 mg/kg i.p., read-out: AUC0–∞ (ng·h/g)/AUC0–∞ (ng·h/mL)): 4.96 ± 3.2
- Kp ([1]; kidneys/serum, 1 mg/kg, kidneys-to-serum, 1 mg/kg i.p., read-out: Cmax (ng/g)/Cmax (ng/mL)): 3.41 ± 0.59
- Kp ([1]; liver (relative to serum), 1 mg/kg, liver, 1.0 mg/kg i.p., read-out: AUC ratio (tissue-to-serum AUC0–t)): 6.32 ± 4.96
- Cmax [1, 4]: 149 ± 34.8 ng/g
- Tmax [1, 4]: 5 min
- Cmax [1, 5]: 404 ± 101 ng/g
- Tmax [1, 5]: 5 min
- Kp ([1]; liver/serum, 0.3 mg/kg, liver, 0.3 mg/kg i.p., read-out: AUC ratio (tissue-to-serum AUC0–t)): 4.75 ± 1.57
- Kp ([1]; liver/serum, 1 mg/kg, liver-to-serum, 1 mg/kg i.p., read-out: AUC0–∞ (ng·h/g)/AUC0–∞ (ng·h/mL)): 5.11 ± 3.85
- Kp ([1]; liver/serum, 1 mg/kg, liver-to-serum, 1 mg/kg i.p., read-out: Cmax (ng/g)/Cmax (ng/mL)): 6.3 ± 2.69
- Kp ([1]; lungs (relative to serum), 1 mg/kg, lungs, 1.0 mg/kg i.p., read-out: AUC ratio (tissue-to-serum AUC0–t)): 14.1 ± 5.62
- Cmax [1, 6]: 214 ± 45.7 ng/g
- Tmax [1, 6]: 5 min
- Cmax [1, 7]: 744 ± 88.9 ng/g
- Tmax [1, 7]: 5 min
- Kp ([1]; lungs/serum, 0.3 mg/kg, lungs, 0.3 mg/kg i.p., read-out: AUC ratio (tissue-to-serum AUC0–t)): 11.1 ± 2.57
- Kp ([1]; lungs/serum, 1 mg/kg, lungs-to-serum, 1 mg/kg i.p., read-out: AUC0–∞ (ng·h/g)/AUC0–∞ (ng·h/mL)): 13.9 ± 7.95
- Kp ([1]; lungs/serum, 1 mg/kg, lungs-to-serum, 1 mg/kg i.p., read-out: Cmax (ng/g)/Cmax (ng/mL)): 15 ± 7.31
- hepatotoxic (statistically significant HepG2 viability decrease) (HepG2): >25 µM
- Ki (5-HT2AR): 39 nM
